Where two headings read alike, the source gives them in different places.
How the values were obtained:
Alternaria solani = test: Fungicide activity, mycelial growth inhibition on PDA plate; assay type: cell-based; conditions: Alternaria solani, read-out: Fungicidal activity inhibition, AS
Cercospora arachidicola = test: as above; assay type: cell-based; conditions: Mycosphaerella arachidis, read-out: Fungicidal activity inhibition, CA
Physalospora piricola = test: as above; assay type: cell-based; conditions: read-out: Fungicidal activity inhibition, PP
Botrytis cinerea = test: as above; assay type: cell-based; conditions: Botrytis cinerea, read-out: Fungicidal activity inhibition, BC
Sclerotinia sclerotiorum = test: as above; assay type: cell-based; conditions: Sclerotinia sclerotiorum, read-out: Fungicidal activity inhibition, SS
Rhizoctonia cerealis = test: as above; assay type: cell-based; conditions: Ceratobasidium cereale, read-out: Fungicidal activity inhibition, RC
Pellicularia sasakii = test: as above; assay type: cell-based; conditions: 50 μg/mL, P. sasakii; read-out: Fungicidal activity inhibition, PS
[1] = test system: Phytophthora infestans (Mont) de Bary; test: microbe, parasite or virus in culture; assay type: cell-based; conditions: for inhibition at 50 µg/mL: Phytophthora infestans, read-out: Fungicidal activity inhibition, PI, 50 μg/mL, P. infestans (Mont.) de Bary
TMV [2] = test: Anti-TMV activity on tobacco, curative mode; assay type: in vivo, tobacco mosaic virus; conditions: for inhibition at 100 µg/mL: Tobacco mosaic virus, read-out: Anti-TMV activity inhibition, Curative effect
TMV [3] = test: Anti-TMV activity on tobacco, protection mode; assay type: in vivo, tobacco mosaic virus; conditions: Tobacco mosaic virus, 100 μg/mL, read-out: Anti-TMV activity inhibition, Protection effect
TMV [4] = test: Anti-TMV activity on tobacco, inactivation mode; assay type: in vivo, tobacco mosaic virus; conditions: Tobacco mosaic virus, 100 μg/mL, read-out: Anti-TMV activity inhibition, Inactivation effect

Row | SMILES | inhibition at 50 µg/mL (Alternaria solani; 50 μg/mL, A. solani) [%] | inhibition at 50 µg/mL (Alternaria solani) [%] | inhibition at 50 µg/mL (Cercospora arachidicola; 50 μg/mL, C. arachidicola) [%] | inhibition at 50 µg/mL (Physalospora piricola; 50 μg/mL, P. piricola) [%] | inhibition at 50 µg/mL (Botrytis cinerea; 50 μg/mL, B. cinerea) [%] | inhibition at 50 µg/mL (Sclerotinia sclerotiorum; 50 μg/mL, S. sclerotiorum) [%] | inhibition at 50 µg/mL (Sclerotinia sclerotiorum) [%] | inhibition at 50 µg/mL (Rhizoctonia cerealis; 50 μg/mL, R. cerealis) [%] | inhibition at 50 µg/mL (Rhizoctonia cerealis) [%] | inhibition at 50 µg/mL (Pellicularia sasakii) [%] | inhibition at 50 µg/mL [1] [%] | inhibition at 100 µg/mL (TMV [2]; 100 μg/mL, tobacco) [%] | inhibition at 100 µg/mL (TMV [3]) [%] | melting point [°C] | inhibition at 50 µg/mL (Cercospora arachidicola) [%] | inhibition at 100 µg/mL (TMV [4]) [%] | further results
1 | CO/C=C(/C(=O)OC)c1ccccc1CO/N=C(\C)CC(=O)c1snc(Cl)c1Cl [CL04-04-B] | 50 | > 30 | 75 | 60.9 | 58.3 | 76.7 | > 40 | 92.6 | > 50 | 64.7 | > 40 | 19.1 ± 2 | > 40 | 103 to 105 |  |  | inhibition at 50 µg/mL (Botrytis cinerea): > 45%
2 | C#CCNC(=O)/C(=N/OC)c1ccccc1CO/N=C(C)/C=C/c1snc(Cl)c1Cl [CL04-32B] | 41 | > 30 | 52 | 64.9 | 47.4 | 80 | > 40 | 100 |  | 78.4 |  |  | 23.4 ± 1.02 | 92 to 93 | > 30 |  | inhibition at 50 µg/mL (Botrytis cinerea): > 45%; Fungicidal activity inhibition, PI ([1]; 50 μg/mL, P. infestans (Mont.) de Bary): 100%
3 | CO/C=C(/C(=O)OC)c1ccccc1CO/N=C(\C)c1snc(Cl)c1Cl [CL03-49] | 42.9 | > 30 | 66.7 | 78.3 | 100 | 80 | > 40 | 100 |  | 64.7 | > 40 | > 30 | 35.9 ± 0.63 | 100 to 102 | > 30 |  | 
4 | CNCC(=O)N[C@@H](CO)C(=O)N[C@H]1[C@H](O)[C@@H](O)[C@H](n2ccc(N)nc2=O)O[C@@H]1C(N)=O [Ningnanmycin, reference compound] |  |  |  |  |  |  |  |  |  |  |  |  |  |  |  |  | inhibition at 100 µg/mL (TMV [2]): 74.1 ± 2.04%
5 | CO/C=C(/C(=O)OC)c1ccccc1CO/N=C(\N)c1snc(Cl)c1Cl [CL04-03] | 57.1 | > 30 | 100 | 87 | 100 | 100 |  | 100 |  | 58.8 | > 40 | > 30 | 35.1 ± 0.39 | 105 to 107 |  |  | 
6 | CO/C=C(/C(=O)OC)c1ccccc1CO/N=C(\C)CC(O)c1snc(Cl)c1Cl (stereo not shown) [CL04-04-A] | 85.7 |  | 75 | 73.9 | 100 | 90 |  | 100 |  | 52.9 | > 40 | 19.1 ± 2.13 |  | 36 to 38 |  |  | 
7 | CO/N=C(/C(=O)OC)c1ccccc1CO/N=C/c1snc(Cl)c1Cl [CL04-15B] | 100 |  | 91.7 | 62.1 | 100 | 90 |  | 98.2 |  | 69.2 |  | 27 ± 4.13 | 14.7 ± 2.73 | 88 to 90 |  |  | 
8 | CO/C=C(/C(=O)OC)c1ccccc1CO/N=C/c1snc(Cl)c1Cl [CL03-50] | 57.1 | > 30 | 66.7 | 78.3 | 100 | 53.3 | > 40 | 100 |  | 64.7 | > 40 | > 30 | > 40 | 61 to 63 | > 30 |  | Anti-TMV activity inhibition, Curative effect (TMV [2]; 100 μg/mL, tobacco): 48.32 ± 5.88%
9 | CO/C=C(/C(=O)OC)c1ccccc1CO/N=C(C)/C=C/c1snc(Cl)c1Cl [CL04-06] | 57.1 | > 30 | 50 |  | 100 | 100 |  | 100 |  | 70.6 |  | 22.4 ± 6.85 | > 40 | 101 to 103 | > 30 | 22.2 ± 5.9 | inhibition at 50 µg/mL (Physalospora piricola): 73.9%
10 | NC(=O)c1ncn([C@@H]2O[C@H](CO)[C@@H](O)[C@H]2O)n1 [Ribavirin, reference compound] |  |  |  |  |  |  |  |  |  |  |  |  |  |  |  | 78 ± 1 | 
11 | CO/N=C(/C(=O)NCC(F)F)c1ccccc1CO/N=C(\C)c1snc(Cl)c1Cl [CL04-22A] | 37.1 | > 30 | 42.9 | 40.4 | 53.9 | 84 | > 40 | 87.7 | > 50 | 20 |  | 23.4 ± 5.58 | 30.7 ± 2.06 | 78 to 80 | > 30 | > 30 | inhibition at 50 µg/mL (Botrytis cinerea): > 45%
12 | CO/N=C(/C(=O)OC)c1ccccc1CO/N=C(\N)c1snc(Cl)c1Cl [CL04-15C] | 52.9 | > 30 | 75 | 71.2 | 100 | 98 |  | 89.1 | > 50 | 76.9 |  | 1.52 ± 0.62 | 25.1 ± 4.33 | 104 to 106 |  |  | 
13 | CO/N=C(/C(=O)N[C@H](C)CSC)c1ccccc1CO/N=C(C)/C=C/c1snc(Cl)c1Cl [CL04-32F] | 12.7 |  | 12.5 | 58 | 42.9 | 52.9 | > 40 | 62 | > 50 | 21.2 | 20 |  | > 40 |  |  | 7.71 ± 1.42 | 
